Broadly, the IC50 is the concentration that gives 50% inhibition.

In data set [1] the test system is human gastric cancer SGC-7901 tumor transplanted in nude mice. Briefly: Growth inhibition of human gastric cancer SGC-7901 tumor transplanted in nude mice. The format is in vivo. Conditions: SGC-7901 xenograft. As to the method:
(§1) Method: 1. Establishing model of human gastric cancer SGC-7901 tumor transplanted in nude mice, and animal groups: SGC_7901 cell lines were cultured with medium RPMI1640 containing 10% fetal bovine serum. SGC-7901 cells at logarithmic growth phase were trypsinized into single cell suspension. Final concentration of the cell was adjusted with medium RPMI1640 into 5×10^7/mL. 0.2 mL of cell suspension was injected subcutaneously into right anterior axillary of each nude mouse. 14 days after inoculation, when the tumor size grew to about 130 to 180 mm^3, the nude mice were randomized into five groups according to tumor size and body weight of mice, with 8-12 mice in each group. 5 groups were: a blank control group (purified water containing 0.5% of hydroxypropyl methylcellulose and 0.1% Tween 80, administered through gavage, each at morning and evening, for 10 days), 12.5, 25 and 50 mg/kg of I-1 treatment group (administered through gavage, each at morning and evening, for 10 days), and 100 mg/kg cyclophosphamide (CYP) group (by intraperitoneal injection, once every 5 days, for 2 weeks), respectively.
(§2) 2. Growth situation of subcutaneous human gastric cancer tumor transplanted in nude mice and inhibitory effect was observed: from the dosing day, body weight of nude mouse as well as the maximum diameter (D) and minimum diameter (d) of tumor were observed every two days. The tumor size was calculated following the formula V=Dd^2/2, and the tumor growth curve was plotted. At the end of the experiment, the tumor was dissected in whole and picture was taken. Growth rate of nude mouse body weight before and after treatment=[(body weight after treatment−body weight before treatment)/body weight before treatment]*100%; tumor inhibition rate=[1−(tumor size after treatment in the experiment group−tumor size before treatment in the experiment group)/(tumor size after treatment in the control group−tumor size before treatment in the control group)]*100%
(In general: In xenograft studies the graft and the host belong to different species.)

The test system of data set [2] is human gastric cancer MGC-803 tumor transplanted in nude mice. Briefly: Growth inhibition of human gastric cancer MGC-803 tumor transplanted in nude mice. The format is in vivo. Conditions: MGC-803 xenograft. As to the method:
(§3) Method: 1. Establishing model of human gastric cancer MGC-803 tumor transplanted in nude mice, and animal groups: MGC-803 cell lines were cultured with medium RPMI1640 containing 10% fetal bovine serum. MGC-803 cells at logarithmic growth phase were trypsinized into single cell suspension. Final concentration of the cell was adjusted with medium RPMI1640 into 5×10^7/mL. 0.2 mL of cell suspension was injected subcutaneously into right anterior axillary of each nude mouse. 8 days after inoculation, when the tumor size grew to about 110 mm^3, the mice were randomized into five groups according to tumor size and body weight of mice, with 10 mice in each group. 5 groups were: a blank control group (purified water containing 0.5% of hydroxypropyl methylcellulose and 0.1% Tween 80, administered through gavage, once per day, for […]), 4, 6 and 9 mg/kg of I-2 treatment group (administered through gavage, once per day, for 17 days), and 100 mg/kg cyclophosphamide group (by intraperitoneal injection, once every 7 days, for 3 weeks), respectively.
as §2, with “3-4” for “two”

The test system of data set [3] is human breast ductal cancer cell line BT-549. The experiment in a line: MTT growth inhibition assay, BT-549. The format is cell-based. Conditions: BT-549, MTT, 96 hours incubation. The procedure: (§4) Method: Cells in the logarithmic growth phase (human gastric cancer cell lines SGC-7901, MGC-803, human oral epidermoid carcinoma cell line KB, human non-small cell lung cancer cell line A549, human breast ductal cancer cell line BT-549, human prostate cancer cell line PC-3, human colon cancer cell line HT-29, human brain astrocytic glioblastoma cell line U-87MG and a human hepatoma cell line SMMC-7721) at a concentrations of 1.5×10^4 were inoculated in 96 well plates. The original medium was removed after cell culture for 24 hours until adherence. The tests included blank control group and drug treatment group. For the control group, the medium was replaced with 1640 medium containing 10% fetal bovine serum; for the drug treatment group, the medium was replaced with medium containing compounds I-1, I-2 and I-3 to be tested at concentrations of 100 μM, 50 μM, 10 μM, 1 μM, 0.1 μM, 0.01 μM, 0.001 μM, 0.0001 μM and 0.00001 μM. After incubation for 96 hours add MTT at a concentration of 5 mg/mL, and resume incubation in a CO2 incubator for 4 hours. And then along the upper part of the culture solution, remove 100 μL, of supernatant, add 100 μL of DMSO, allow to place at a dark for 10 minutes. With a microplate reader (a product from Sunrise company), absorbance was measured (at wavelength 570 nm), and cell survival situation is calculated based on the absorbance. Six duplicated wells were set for each treatment. Cell viability (%)=ΔODdrug treatment/ΔODblank control×100.
(Formazan colour is commonly taken as a measure of viable cells.)

Data set [4] concerns human gastric cancer cell line MGC-803. The experiment in a line: MTT growth inhibition assay, MGC-803. The format is cell-based. The conditions noted are these: MGC-803, MTT, 96 hours incubation. As to the method:
as §4

Data set [5] relates to human gastric cancer cell line SGC-7901. The experiment in a line: MTT growth inhibition assay, SGC-7901. The format is cell-based. The conditions noted are these: SGC-7901, MTT, 96 hours incubation. As to the method: as §4
Data set [6] is described as follows: Body weight change / toxicity in SGC-7901 tumor-bearing nude mice. The procedure:
as §1
(§5) 2. […] The tumor size was calculated following the formula V=Dd^2/2, and the tumor growth curve was plotted. […]

The test system of data set [7] is human oral epidermoid carcinoma cell line KB. The experiment in a line: MTT growth inhibition assay, KB. The format is cell-based. The conditions noted are these: 96 hours incubation. The procedure: as §4
The subject of data set [8] is a variety of human tumor cell lines. The experiment in a line: Growth inhibition on various strains of human tumor cell with MTT assay (overall statements). The format is cell-based. The conditions noted are these: in words. As to the method:
as §4, with “Six duplicated wells were set for each treatment. Cell viability (%)=ΔODdrug treatment/ΔODblank control×100.” left out

Data set [9] deals with human prostate cancer cell line PC-3. Briefly: MTT growth inhibition assay, PC-3. The format is cell-based. Conditions: PC-3, MTT, 96 hours incubation. As to the method:
as §4

Data set [10] relates to human hepatoma cell line SMMC-7721. Briefly: MTT growth inhibition assay, SMMC-7721. The format is cell-based. Conditions: SMMC-7721, MTT, 96 hours incubation. The procedure: as §4
Data set [11] has as its system human brain astrocytic glioblastoma cell line U-87MG. The experiment in a line: MTT growth inhibition assay, U-87MG. The conditions noted are these: U-89MG [sic], 96 hours incubation. In kind it is cell-based. The procedure: as §4
Data set [12] deals with human non-small cell lung cancer cell line A549. The experiment in a line: MTT growth inhibition assay, A549. The format is cell-based. The conditions noted are these: 96 hours incubation. As to the method:
as §4

The subject of data set [13] is human colon cancer cell line HT-29. The experiment in a line: MTT growth inhibition assay, HT-29. The format is cell-based. The conditions noted are these: HT-29, MTT, 96 hours incubation. The procedure:
as §4

Data set [14] can be described thus: Body weight change / toxicity in MGC-803 tumor-bearing nude mice. The procedure: as §3, §5

Consider `O=P1(N(CCCl)CCCl)NCCCO1` (centres unmarked) [CYP, cyclophosphamide, reference compound], for which the Tumor inhibition rate in data set [1] (100 mg/kg, intraperitoneal injection, once every 5 days, for 2 weeks) worked out at 39.5%; in data set [2] (100 mg/kg, intraperitoneal injection, once every 7 days, for 3 weeks), 62.4%.
`Cc1cc2c(cn1)C(c1ccccc1Cl)=Nc1c(n[nH]c1C)N2` [Compound I-1]: the IC50 stood at 390 ± 230 nM in data set [3]; 980 ± 40 nM in data set [4]; 290 ± 130 nM in [5]; 1350 ± 50 nM in data set [7]; 1900 ± 390 nM in data set [9]; 140 ± 30 nM in [10]. The IC50 in [11] was 400 ± 20 nM; in data set [12], 690 ± 240 nM; in data set [13], 160 ± 40 nM. Further, the Tumor inhibition rate in [1] (12.5 mg/kg, gavage, each at morning and evening, for 10 days) was found to be 67.5%; in data set [1] (25 mg/kg, gavage, each at morning and evening, for 10 days) it was 83%; in [1] (50 mg/kg, gavage, each at morning and evening, for 10 days) it was 88.6%. In addition, the Toxic side effect result in data set [6] (12.5, 25 and 50 mg/kg, gavage, twice daily, 10 days) is listed as “negligible toxic side effect”. In addition, the “Effect on weight gain of nude mouse” value in data set [6] (only for the highest dose of 50 mg/kg, FIG. 3) was “mild effect on weight gain”. Further, in data set [8], the “Inhibitory effect on the growth of a variety of human tumor cell lines” value was “very significant inhibition”.
Regarding `CCc1cc2c(cn1)C(c1ccccc1Cl)=Nc1c(n[nH]c1C)N2` [Compound I-2, 9-(2-chlorophenyl)-6-ethyl-1-methyl-2,4-dihydrogen-2,3,4,7,10-pentaaza-benzo [f] azulene], the 50% inhibitory concentration (IC50) in data set [3] came out at 70 ± 30 nM; in [4], 700 ± 20 nM; in data set [5], 90 ± 10 nM; in data set [7], 620 ± 10 nM; in data set [9], 850 ± 100 nM; in [10], 40 ± 10 nM. The 50% inhibitory concentration (IC50) amounted to 60 ± 40 nM in data set [11], 250 ± 140 nM in data set [12] and 80 ± 10 nM in [13]. The Tumor inhibition rate in [2] (4 mg/kg, gavage, once per day, for 17 days) is 72.5%; in data set [2] (6 mg/kg, gavage, once per day, for 17 days), 97.3%; in data set [2] (9 mg/kg, gavage, once per day, for 17 days) it was 100%. The “Inhibitory effect on the growth of a variety of human tumor cell lines” value in data set [8] was “very significant inhibition”. Moreover, the Toxic side effect entry in [14] (4, 6 and 9 mg/kg, gavage, once per day, 17 days) is reported as “negligible toxic side effect”. Further, the “Effect on weight gain of nude mouse” value in data set [14] (only for the highest dose of 9 mg/kg on treatment day 3-6, FIG. 6) was “mild effect on weight gain”.
Regarding `Cc1cc2c(cn1)C(c1ccccc1F)=Nc1c(n[nH]c1C)N2` [Compound I-3], the IC50 in [3] is 1950 ± 230 nM; in data set [4], 4860 ± 390 nM; in data set [5] it was 1630 ± 130 nM; in [7], 7270 ± 590 nM; in data set [9], 11300 ± 1300 nM; in data set [10], 820 ± 190 nM. Also, the IC50 in data set [11] came to 1940 ± 240 nM; in data set [12] it was 3250 ± 250 nM; in data set [13] it was 740 ± 80 nM.
